Inconclusive results and toxic doses are left out. Cut-off read from the data, not from the text of the source: active = T/C of 150% or more; inactive = T/C below 125%.
System: L1210 leukemia ip in BDF1 mice, survival T/C
Experiment: NCI In Vivo Anticancer Drug Screen. Data for tumor model L1210 Leukemia (intraperitoneal) in B6D2F1 (BDF1) mice
Conditions: endpoint: mean survival time, higher = longer survival
In short: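 Value reflects the ratio of survival in compound-treated mice to survival in vehicle-treated controls, with both groups carrying the same transplanted tumor.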

[1] = dose: 100.0 mg/kg/injection, schedule: Q04DX002 (ip), vehicle: Klucel (hydroxypropylcellulose) (HPC)
[2] = dose: 200.0 mg/kg/injection, schedule: Q04DX002 (ip), vehicle: Klucel (hydroxypropylcellulose) (HPC)
[3] = dose: 400.0 mg/kg/injection, schedule: Q04DX002 (ip), vehicle: Klucel (hydroxypropylcellulose) (HPC)
[4] = dose: 100.0 mg/kg/injection, schedule: Q04DX003 (ip), vehicle: Klucel (hydroxypropylcellulose) (HPC)
[5] = dose: 200.0 mg/kg/injection, schedule: Q04DX003 (ip), vehicle: Klucel (hydroxypropylcellulose) (HPC)
[6] = dose: 400.0 mg/kg/injection, schedule: Q04DX003 (ip), vehicle: Klucel (hydroxypropylcellulose) (HPC)
[7] = dose: 100.0 mg/kg/injection, schedule: Q01DX009 (ip), vehicle: Klucel (hydroxypropylcellulose) (HPC)
[8] = dose: 200.0 mg/kg/injection, schedule: Q01DX009 (ip), vehicle: Klucel (hydroxypropylcellulose) (HPC)
[9] = dose: 400.0 mg/kg/injection, schedule: Q01DX009 (ip), vehicle: Klucel (hydroxypropylcellulose) (HPC)
[10] = dose: 50.0 mg/kg/injection, schedule: Q01DX009 (ip), vehicle: Klucel (hydroxypropylcellulose) (HPC)
[11] = dose: 200.0 mg/kg/injection, schedule: Q04DX003 (ip), vehicle: saline
[12] = dose: 400.0 mg/kg/injection, schedule: Q04DX003 (ip), vehicle: saline
[13] = dose: 100.0 mg/kg/injection, schedule: Q01DX009 (ip), vehicle: saline
[14] = dose: 100.0 mg/kg/injection, schedule: Q04DX003 (ip), vehicle: saline
[15] = dose: 200.0 mg/kg/injection, schedule: Q01DX009 (ip), vehicle: saline
[16] = dose: 400.0 mg/kg/injection, schedule: Q01DX009 (ip), vehicle: saline

Measured: T/C

O=C(/C=C\c1ccccc1)OCc1ccccc1CN1CCCCC1
inactive: [1] 108 % of control | [2] 116 % of control | [3] 90 % of control

O=[N+]([O-])c1ccc(C=Nc2ccccc2S)s1
inactive: [4] 100 % of control | [5] 96 % of control | [6] 94 % of control

Nc1ccc(NS(=O)(=O)c2ccccc2)nc1
inactive: [7] 102 % of control | [4] 106 % of control | [8] 96 % of control | [5] 100 % of control | [9] 93 % of control | [6] 105 % of control

O=[N+]([O-])/C(N=Nc1ccc2ccccc2c1)=N\Nc1ccc2ccccc2c1
inactive: dose: 10.0 mg/kg/injection, schedule: Q01DX001 (ip), vehicle: acetone 98 % of control | dose: 20.0 mg/kg/injection, schedule: Q01DX001 (ip), vehicle: acetone 94 % of control | dose: 40.0 mg/kg/injection, schedule: Q01DX001 (ip), vehicle: acetone 88 % of control | dose: 75.0 mg/kg/injection, schedule: Q01DX001 (ip), vehicle: acetone 89 % of control | dose: 300.0 mg/kg/injection, schedule: Q01DX001 (ip), vehicle: acetone 89 % of control

COc1ccc(/C=C2N=C(/C=C/c3ccccc3)OC\2=O)cc1OC
inactive: dose: 100.0 mg/kg/injection, schedule: Q04DX002 (ip), vehicle: gum acacia 88 % of control | dose: 200.0 mg/kg/injection, schedule: Q04DX002 (ip), vehicle: gum acacia 95 % of control | dose: 400.0 mg/kg/injection, schedule: Q04DX002 (ip), vehicle: gum acacia 88 % of control

Cc1cc(C)cc(OCC2CNC(=O)O2)c1 (centres undefined)
inactive: dose: 25.0 mg/kg/injection, schedule: Q01DX009 (ip), vehicle: Klucel (hydroxypropylcellulose) (HPC) 101 % of control | dose: 25.0 mg/kg/injection, schedule: Q04DX003 (ip), vehicle: saline 90 % of control | [10] 114 % of control | dose: 50.0 mg/kg/injection, schedule: Q04DX003 (ip), vehicle: saline 92 % of control | [7] 100 % of control | [8] 100 % of control | [11] 90 % of control | [9] 103 % of control | [12] 113 % of control

CCCCC(C)(O)C(F)(F)F (centres undefined)
inactive: dose: 100.0 mg/kg/injection, schedule: Q01DX001 (ip), vehicle: steriod suspending solution 96 % of control | dose: 200.0 mg/kg/injection, schedule: Q01DX001 (ip), vehicle: steriod suspending solution 91 % of control | dose: 400.0 mg/kg/injection, schedule: Q01DX001 (ip), vehicle: steriod suspending solution 100 % of control

OC1C=C(Br)C2CCC1CC2 (centres undefined)
inactive: dose: 100.0 mg/kg/injection, schedule: Q01DX009 (ip), vehicle: other 113 % of control | dose: 100.0 mg/kg/injection, schedule: Q04DX003 (ip), vehicle: other 96 % of control | dose: 200.0 mg/kg/injection, schedule: Q01DX009 (ip), vehicle: other 100 % of control | dose: 200.0 mg/kg/injection, schedule: Q04DX003 (ip), vehicle: other 107 % of control | dose: 400.0 mg/kg/injection, schedule: Q01DX009 (ip), vehicle: other 92 % of control | dose: 400.0 mg/kg/injection, schedule: Q04DX003 (ip), vehicle: other 100 % of control

Nc1ccc(CCc2ccc(N)cc2[N+](=O)[O-])c([N+](=O)[O-])c1
inactive: [7] 101 % of control | [4] 96 % of control | [8] 101 % of control | [5] 109 % of control | [9] 92 % of control | [6] 90 % of control

CC(=O)OCc1ccc(OC(C)=O)cn1
inactive: dose: 100.0 mg/kg/injection, schedule: Q01DX001 (ip), vehicle: carboxymethylcellulose (CMC) 100 % of control | dose: 200.0 mg/kg/injection, schedule: Q01DX001 (ip), vehicle: carboxymethylcellulose (CMC) 103 % of control | dose: 400.0 mg/kg/injection, schedule: Q01DX001 (ip), vehicle: carboxymethylcellulose (CMC) 94 % of control

Nc1ccc(Nc2ccncc2)cc1
inactive: [10] 98 % of control | [7] 97 % of control | [4] 93 % of control | [8] 98 % of control | [5] 95 % of control

COC(=O)C1(C)CCC2(C)CCC3(C)C4=CC=C5C(=CC(=O)C(O)=C5C)C4(C)CCC3(C)C2C1 (centres undefined)
inactive: dose: 37.5 mg/kg/injection, schedule: Q01DX001 (sc), vehicle: steriod suspending solution 104 % of control | dose: 75.0 mg/kg/injection, schedule: Q01DX001 (sc), vehicle: steriod suspending solution 98 % of control | dose: 150.0 mg/kg/injection, schedule: Q01DX001 (sc), vehicle: steriod suspending solution 98 % of control | dose: 300.0 mg/kg/injection, schedule: Q01DX001 (sc), vehicle: steriod suspending solution 95 % of control

CCOC(=O)C1OC1(C)c1ccccc1 (centres undefined)
inactive: [13] 102 % of control | [14] 100 % of control | [15] 100 % of control | [11] 94 % of control | [16] 102 % of control | [12] 107 % of control

CC1=CC(=O)C2C(C)(O1)C1C(=O)C=C(C)OC21C (centres undefined)
inactive: dose: 100.0 mg/kg/injection, schedule: Q01DX001 (ip), vehicle: Klucel (hydroxypropylcellulose) (HPC) 93 % of control | [4] 101 % of control | dose: 200.0 mg/kg/injection, schedule: Q01DX001 (ip), vehicle: Klucel (hydroxypropylcellulose) (HPC) 101 % of control | [5] 100 % of control | dose: 400.0 mg/kg/injection, schedule: Q01DX001 (ip), vehicle: Klucel (hydroxypropylcellulose) (HPC) 104 % of control | [6] 92 % of control

COc1ccc(COC(=O)Oc2ccc(Cl)cc2)cc1OC
inactive: dose: 100.0 mg/kg/injection, schedule: Q04DX003 (ip), vehicle: saline with Tween-80 96 % of control | dose: 200.0 mg/kg/injection, schedule: Q04DX003 (ip), vehicle: saline with Tween-80 96 % of control | dose: 400.0 mg/kg/injection, schedule: Q04DX003 (ip), vehicle: saline with Tween-80 101 % of control

O=[N+]([O-])c1ccc(Oc2ccc(Br)cc2)c([N+](=O)[O-])c1
inactive: [1] 103 % of control | [2] 93 % of control | [3] 97 % of control

CCN(CC)CC(=O)NCC(CC)(CCN1CCOCC1)c1cccc2ccccc12 (centres undefined)
inactive: [14] 97 % of control | [11] 95 % of control

COC(=O)c1ccc([N+](=O)[O-])c(OC)c1
inactive: dose: 75.0 mg/kg/injection, schedule: Q01DX001 (ip), vehicle: saline 91 % of control | dose: 75.0 mg/kg/injection, schedule: Q04DX003 (ip), vehicle: saline 94 % of control | dose: 150.0 mg/kg/injection, schedule: Q01DX001 (ip), vehicle: saline 91 % of control | dose: 150.0 mg/kg/injection, schedule: Q04DX003 (ip), vehicle: saline 108 % of control | dose: 300.0 mg/kg/injection, schedule: Q01DX001 (ip), vehicle: saline 93 % of control | dose: 300.0 mg/kg/injection, schedule: Q04DX003 (ip), vehicle: saline 101 % of control

CC(C)OC(=S)SCC(=O)c1ccc(-c2ccccc2)cc1
inactive: [1] 96 % of control | [2] 92 % of control | [3] 96 % of control

COc1ccc(COC(=O)NC2CCCCC2)cc1OC
inactive: dose: 65.0 mg/kg/injection, schedule: Q01DX009 (ip), vehicle: saline 93 % of control | [13] 93 % of control | [14] 112 % of control | dose: 150.0 mg/kg/injection, schedule: Q01DX009 (ip), vehicle: saline 101 % of control | [15] 104 % of control | [11] 118 % of control | [16] 102 % of control | [12] 102 % of control

O=C(Nc1ccc(CCO)cc1)c1ccc(F)cc1
inactive: dose: 100.0 mg/kg/injection, schedule: Q01DX009 (ip), vehicle: saline with Tween-80 102 % of control | dose: 200.0 mg/kg/injection, schedule: Q01DX009 (ip), vehicle: saline with Tween-80 93 % of control | dose: 400.0 mg/kg/injection, schedule: Q01DX009 (ip), vehicle: saline with Tween-80 93 % of control

COc1cc(CCC(=O)O)cc(/C=N/NC(N)=O)c1O
inactive: dose: 100.0 mg/kg/injection, schedule: Q01DX001 (ip), vehicle: saline 101 % of control | dose: 200.0 mg/kg/injection, schedule: Q01DX001 (ip), vehicle: saline 89 % of control | dose: 400.0 mg/kg/injection, schedule: Q01DX001 (ip), vehicle: saline 95 % of control
